From the supplement of paper PMC10627819

Key:
[1] = system: B. subtilis 168; assay: fitness (endpoint OD595 vs no drug) (fraction); higher = more growth
In short: (§1)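 Fitness was defined as the optical density at the transition into stationary phase relative to the robust mean of no-drug control wells. Values were capped at 1. Cultures were started at OD595 0.01 in 384-well plates (30 µl, or 55 µl for S. pneumoniae) in TSB, LB Lennox or CY at 37 °C. OD595 was recorded every 30 min over 14 h, with the first reading subtracted as background.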

[2] = system: S. aureus DSM 20231; assay: as above
In short: as §1

[3] = system: S. aureus Newman; assay: as above
In short: as §1

[4] = system: S. pneumoniae D39V; assay: as above
In short: as §1

[5] = system: B. subtilis 168; assay: Bliss interaction score (quartile over a dose matrix) (fitness difference); higher = more antagonism (negative = synergy)
In short: (§2)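 The Bliss score is observed minus expected fitness under the product model, reported as quartiles over technical, biological and donor/recipient replicates. Fitness is the OD595 at entry into stationary phase divided by the plate's robust no-drug mean and capped at 1. Single-drug fitness was inferred from combination data.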

[6] = system: S. aureus DSM 20231; assay: as above
In short: as §2

[7] = system: S. aureus Newman; assay: as above
In short: as §2

[8] = system: S. pneumoniae D39V; assay: as above
In short: as §2
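For Bliss interaction score (quartile over a dose matrix) in this document: first quartile when negative (synergy) and third quartile when positive (antagonism).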

COc1ccc(C[C@H](N)C(=O)N[C@H]2[C@@H](O)[C@H](n3cnc4c(N(C)C)ncnc43)O[C@@H]2CO)cc1 [Puromycin] + CN1C2=CC=CC=C2N=C3C1=CC=CC3=O [Pyocyanin]
fitness
Conditions	first compound 0.39 µg/mL	first compound 0.78 µg/mL	first compound 1 µg/mL	first compound 1.56 µg/mL	first compound 2 µg/mL	first compound 4 µg/mL
[1], partner 1.25 µg/mL	0.879	0.847	–	0.89	–	–
[1], partner 2.5 µg/mL	0.875	0.812	–	0.823	–	–
[1], partner 5 µg/mL	0.679	0.666	–	0.656	–	–
[2], partner 1.25 µg/mL	0.86	0.945	–	≥ 1	–	–
[2], partner 2.5 µg/mL	0.96	0.957	–	0.967	–	–
[2], partner 5 µg/mL	0.67	0.725	–	0.681	–	–
[3], partner 1.25 µg/mL	0.907	0.902	–	0.918	–	–
[3], partner 2.5 µg/mL	0.785	0.824	–	0.845	–	–
[3], partner 5 µg/mL	0.476	0.44	–	0.417	–	–
[4], partner 0.325 µg/mL	–	–	0.977	–	0.975	0.792
[4], partner 0.65 µg/mL	–	–	0.926	–	0.866	0.697

one replicate
Conditions	fitness
[2], first compound 3.12 µg/mL, partner 1.25 µg/mL	0.946
[2], first compound 3.12 µg/mL, partner 2.5 µg/mL	0.844
[2], first compound 3.12 µg/mL, partner 5 µg/mL	0.482
[2], first compound 6.24 µg/mL, partner 1.25 µg/mL	0.756
[2], first compound 6.24 µg/mL, partner 2.5 µg/mL	0.632
[2], first compound 6.24 µg/mL, partner 5 µg/mL	0.248
[4], first compound 1 µg/mL, partner 1.3 µg/mL	0.394
[4], first compound 2 µg/mL, partner 1.3 µg/mL	0.34
[4], first compound 4 µg/mL, partner 1.3 µg/mL	0.294

Conditions	Bliss interaction score
[5]	-0.0765
[6]	0.0671
[7]	0.104
[8]	-0.117

C[C@@H]1O[C@@H]1P(=O)(O)O [Fosfomycin] + COc1ccc(C[C@H](N)C(=O)N[C@H]2[C@@H](O)[C@H](n3cnc4c(N(C)C)ncnc43)O[C@@H]2CO)cc1 [Puromycin]
fitness
Conditions	partner 0.39 µg/mL	partner 0.78 µg/mL	partner 1 µg/mL	partner 1.56 µg/mL	partner 2 µg/mL
[1], first compound 1.562 µg/mL	0.694	0.712	–	0.672	–
[1], first compound 3.124 µg/mL	0.65	0.562	–	0.583	–
[1], first compound 6.248 µg/mL	0.407	0.354	–	0.378	–
[2], first compound 0.781 µg/mL	0.799	0.776	–	0.829	–
[2], first compound 1.562 µg/mL	0.631	0.662	–	0.632	–
[2], first compound 3.124 µg/mL	0.491	0.541	–	0.514	–
[3], first compound 0.781 µg/mL	0.55	0.579	–	0.612	–
[3], first compound 1.562 µg/mL	0.463	0.495	–	0.516	–
[3], first compound 3.124 µg/mL	0.134	0.149	–	0.108	–
[4], first compound 1.25 µg/mL	–	–	0.974	–	0.916
[4], first compound 2.5 µg/mL	–	–	0.982	–	0.89
[4], first compound 5 µg/mL	–	–	0.902	–	0.898

fitness, [2], one replicate
Conditions	first compound 0.781 µg/mL	first compound 1.562 µg/mL	first compound 3.124 µg/mL
partner 3.12 µg/mL	0.828	0.733	0.611
partner 6.24 µg/mL	0.707	0.488	0.329

Conditions	Bliss interaction score
[5]	0.0393
[6]	0.047
[7]	-0.0684
[8]	0.116

COc1cccc2c1C(=O)c1c(O)c3c(c(O)c1C2=O)C[C@@](O)(C(=O)CO)C[C@@H]3O[C@H]1C[C@H](N)[C@H](O)[C@H](C)O1 [Doxorubicin] + CCN(CC)CCOC(=O)c1ccc(N)cc1 [Procaine]
fitness
Conditions	first compound 0.25 µg/mL	first compound 0.5 µg/mL	first compound 0.625 µg/mL	first compound 1 µg/mL	first compound 1.25 µg/mL	first compound 2.5 µg/mL
[1], partner 85.5 µg/mL	–	–	0.934	–	0.89	0.672
[1], partner 171 µg/mL	–	–	0.961	–	0.894	0.654
[1], partner 342 µg/mL	–	–	0.887	–	0.879	0.702
[2], partner 85.5 µg/mL	–	–	0.829	–	0.823	0.748
[2], partner 171 µg/mL	–	–	0.926	–	0.916	0.832
[2], partner 342 µg/mL	–	–	0.898	–	0.866	0.804
[3], partner 85.5 µg/mL	–	–	0.801	–	0.823	0.745
[3], partner 171 µg/mL	–	–	0.79	–	0.835	0.752
[3], partner 342 µg/mL	–	–	0.815	–	0.747	0.764
[4], partner 85.5 µg/mL	0.988	≥ 1	–	0.917	–	–
[4], partner 171 µg/mL	0.963	0.98	–	0.892	–	–
[4], partner 342 µg/mL	0.97	0.996	–	0.855	–	–

Conditions	Bliss interaction score
[5]	0.095
[6]	-0.0642
[7]	-0.058
[8]	0.07

C[C@@H]1O[C@@H]1P(=O)(O)O [Fosfomycin] + CN[C@@H]1[C@H](O)[C@H](NC)[C@H]2O[C@@]3(O)C(=O)C[C@@H](C)O[C@H]3O[C@@H]2[C@H]1O [Spectinomycin]
fitness
Conditions	partner 2 µg/mL	partner 4 µg/mL	partner 8 µg/mL	partner 16 µg/mL
[1], first compound 1.562 µg/mL	0.657	0.662	0.601	–
[1], first compound 3.124 µg/mL	0.554	0.526	0.426	–
[1], first compound 6.248 µg/mL	0.431	0.4	0.212	–
[2], first compound 0.781 µg/mL	–	0.69	0.72	0.683
[2], first compound 1.562 µg/mL	–	0.588	0.568	0.595
[2], first compound 3.124 µg/mL	–	0.511	0.495	0.416
[3], first compound 0.781 µg/mL	–	0.574	0.58	0.497
[3], first compound 1.562 µg/mL	–	0.452	0.412	0.234
[3], first compound 3.124 µg/mL	–	0.0691	0.0277	0.0028
[4], first compound 1.25 µg/mL	–	0.943	0.885	0.806
[4], first compound 2.5 µg/mL	–	0.899	0.868	0.817
[4], first compound 5 µg/mL	–	0.704	0.734	0.652

fitness, one replicate
Conditions	first compound 0.781 µg/mL	first compound 1.562 µg/mL	first compound 3.124 µg/mL
[2], partner 32 µg/mL	0.692	0.564	0.268
[2], partner 64 µg/mL	0.0413	0.0145	0.0077
[3], partner 32 µg/mL	0.056	0.0135	0
[3], partner 64 µg/mL	0.0367	0.0527	0.0276

Conditions	Bliss interaction score
[5]	-0.107
[6]	-0.0508
[7]	-0.171
[8]	0.0537
